Results: patent US6355428B1, “Nucleic acid ligand interaction assays” (Genelabs Technologies, Inc., priority 1998, dated 2002)

Experiments:
[1] = tested on: RNA 5′-rCUAGAUCUGA-3′ (SEQ ID NO: 23) double stranded RNA probe; assay: Fluorescence quenching direct binding assay, RNA; conditions: change in fluorescence similar to single-stranded controls
Protocol: The specific examples described in this section employ fluorescence quenching as the detection system. In these examples, because conditions are adjusted to maintain the oligonucleotides in single-stranded form in the absence of the ligand, the assay starts with the system at a high or maximum level of fluorescence, and fluorescence generally decreases, depending on binding affinity, as the ligand is added.
In the Figure legends, RNA oligonucleotides are denoted by an “r” at the beginning of the sequence, and single stranded controls by “ss” at the end of the sequence. These single stranded sequence, are used alone in control experiments, which thus employ only an “F” strand and no complementary quenching strand. Any quenching of fluorescence that is not due to hybridization can thus be acounted for. Maximum quenching expected on complete hybridization of these oligonucleotides is 85-90%; therefore some signal remains after complete hybridization. The signal is plotted so that it is normalized to the control signal in the absence of ligand.
Netropsin has been shown in previous studies to bind preferentially to A/T rich regions of DNA. […] Netropsin also binds well to the sequence 5′-GCGGTATTT-3′ (SEQ ID NO: 12), which is a useful “indicator” probe (as discussed below), having both C/G and A/T rich sequences. […]

[2] = tested on: F/Q indicator duplex of SEQ ID NO: 75 and SEQ ID NO: 76; assay: Kinetic strand displacement assay (fluorescence quenching); format: binding
From the text: This version of the assay is based on the displacement of a shorter strand within an indicator duplex by a longer strand. […] Again, a duplex of first and second sequences, as described above, is used, but in this assay, the strands differ in length, thus creating a single stranded overhang region. In a fluorescence quenching assay format, for example, the “F” strand is generally longer than the “Q” strand. In most cases, a minimum overhang region of about 4-20 nucleotides is effective to initiate strand displacement. Because a longer region will increase the rate of displacement, and it is generally desirable in the assay to reduce the rate of displacement, so as to facilitate measurement, this length of 4-20 nucleotides is generally preferred. A length of 5-7 nucleotides is particularly preferred.
The first and second strands are allowed to form a duplex in the absence of the ligand. In the present example, the “F” and “Q” groups are thus in proximity, giving a minimum level (when Q is a quenching group) of fluorescence. The displacing strand is added, and the rate of displacement, as indicated by an increase (or other change) in fluorescence over time, is observed (see FIG. 2). The experiment is then repeated in the presence of increasing amounts of ligand. A strongly binding ligand will stabilize the initial duplex and thus slow the rate of displacement. It is also expected that a ligand binding closer to the overhang site will also have a greater effect on inhibiting displacement.
The displacing strand, having SEQ ID NO: 77 (Table VI), is added, and the increase in fluorescence is observed over time. […] About 0.08 μM drug was effective to detectably slow the rate of displacement, and at 1.25-2.5 μM, the increase at 2 hrs was reduced to about 40%.
A mixture was formed of 60 nM of a fluorescein labeled 28-nucleotide strand having SEQ ID NO: 75 (Table VI) and 90 nM of a Dabcyl™-labeled 21-nucleotide quenching strand (SEQ ID NO: 76) in a buffer containing 20 mM HEPES, pH 7.5, 0.1 mM EDTA, and 30 mM NaCl. The control experiment contained no added drug; for subsequent experiment, increasing amounts of netropsin were added. To start the displacement reaction, the displacing strand (SEQ ID NO: 77) was added at concentrations of 35 nM to 60 nM. The fluorescence of the system was then monitored every 5 minutes for 90 to 120 minutes.
The initial rate of the displacement reaction was calculated from plots of fluorescence vs. time as the slope of the fluorescence curve from 0 to 60 minutes.
Additional experiments were carried out in which specific, unlabeled DNA competitor duplexes, whose sequences are shown in Table VII, were added to the assay mixture.

## Cn1cc(NC(=O)c2cc(NC(=O)CN=C(N)N)cn2C)cc1C(=O)NCCC(=N)N [Netropsin, netropsin]
[1]
  binding (decrease in fluorescence, FIG. 3A): does not bind well
[2]; A/T rich competitor duplex SEQ ID NO: 78
  effect of unlabeled competitor duplex on rate of displacement in presence of drug (FIG. 16): rate of displacement is increased by increasing amounts of the A/T rich competitor duplex
[2]; at 1.25-2.5 μM netropsin, about 175% in absence of drug
  increase in fluorescence at 2 hrs: about 40%
[2]; displacing strand SEQ ID NO: 77
  drug concentration effective to detectably slow the rate of displacement (FIG. 14): About 0.08 μM
[2]; initial rate = slope 0 to 60 minutes
  drug concentration giving notable decrease in initial rate of displacement (FIG. 15): about 0.08 μM
